What is called IC50 is the concentration that gives 50% inhibition.

Each structure is given as a SMILES string.

The text below walks through data of patent publication US5041436A, “1-arylsulphonyl-2-piperidinone derivatives, process and intermediates for the preparation thereof, their application as antispasmodics and compositions containing them” (Roussel Uclaf, priority 1989, dated 1991).

Assay [1] has as its target T1, Muscarinic receptor 1 (Rattus norvegicus, UniProt P08482).
T1 construct: cortices removed from the brains of male rats; from tissue; host or cells: rat brain cortex homogenate
T1 sequence (P08482 1-460): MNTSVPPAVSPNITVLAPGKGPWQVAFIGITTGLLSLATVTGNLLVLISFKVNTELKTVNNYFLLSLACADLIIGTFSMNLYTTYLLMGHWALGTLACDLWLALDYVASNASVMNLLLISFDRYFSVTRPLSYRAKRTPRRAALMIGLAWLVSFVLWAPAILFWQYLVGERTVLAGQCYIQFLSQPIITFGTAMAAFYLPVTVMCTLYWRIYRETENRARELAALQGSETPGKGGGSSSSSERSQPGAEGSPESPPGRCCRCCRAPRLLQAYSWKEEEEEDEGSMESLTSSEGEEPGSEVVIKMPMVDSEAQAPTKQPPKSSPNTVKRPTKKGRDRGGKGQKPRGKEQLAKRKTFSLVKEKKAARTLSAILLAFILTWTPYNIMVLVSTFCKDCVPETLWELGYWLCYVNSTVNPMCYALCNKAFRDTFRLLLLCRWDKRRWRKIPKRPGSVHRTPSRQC
In words: Binding to muscarinic receptor 1 ([^3 H]pirenzepine), rat cortex. The settings on record: for IC50: 0.25 nM [^3 H]pirenzepine, 60 minutes at 25° C., pH 7.4, rat cortex, read-out: Affinity for M1 muscarinic receptors, [^3 H]pirenzepine, IC50; for affinity for the muscarinic receptor (in words): summary of Table 1. On the procedure: (§1) 1) Binding to different brain receptors.
Preparation of this is carried out from cortices removed from the brains of male rats weighing 150 to 200 g (Iffa Credo), ground in a Polytron in a 10 mM Na/K buffer pH 7.4. After incubation (0.5 ml aliquots of homogenate) for 60 minutes at 25° C. in the presence of 0.25 nM [^3 H]pirenzepine, either alone, or with the test product, or with an excess of 10^-5 M pirenzepine (to determine the non-specifically bound radioactivity), the incubates are cooled and filtered.
The filtration is performed on Whatman GF/C filters prewashed in a 0.05% strength solution of polyethylenimine. The filters are rinsed with 3×5 ml of 10 mM Na/K phosphate buffer pH 7.4 and the measurements are then performed by liquid scintillation.
The results are expressed as an IC50 (concentration needed to inhibit by 50% the specifically bound radioactivity).

The target in assay [2] is dopamine receptors. Put plainly: Binding to other brain receptors: dopamine. The settings on record: negligible affinity.
From the text: as §1

Assay [3] has as its target histamine receptors. Put plainly: Binding to other brain receptors: histamine. The note with it: negligible affinity.
From the text: as §1

In assay [4] the target is serotonin 5-HT1 receptors. In words: Binding to other brain receptors: serotonin 5-HT1. The note with it: negligible affinity.
From the text: as §1

For assay [5], the target named is T2, serotonin 5-HT2 receptors (Homo sapiens, UniProt P28223).
T2 construct: from tissue
T2 sequence (P28223 whole entry): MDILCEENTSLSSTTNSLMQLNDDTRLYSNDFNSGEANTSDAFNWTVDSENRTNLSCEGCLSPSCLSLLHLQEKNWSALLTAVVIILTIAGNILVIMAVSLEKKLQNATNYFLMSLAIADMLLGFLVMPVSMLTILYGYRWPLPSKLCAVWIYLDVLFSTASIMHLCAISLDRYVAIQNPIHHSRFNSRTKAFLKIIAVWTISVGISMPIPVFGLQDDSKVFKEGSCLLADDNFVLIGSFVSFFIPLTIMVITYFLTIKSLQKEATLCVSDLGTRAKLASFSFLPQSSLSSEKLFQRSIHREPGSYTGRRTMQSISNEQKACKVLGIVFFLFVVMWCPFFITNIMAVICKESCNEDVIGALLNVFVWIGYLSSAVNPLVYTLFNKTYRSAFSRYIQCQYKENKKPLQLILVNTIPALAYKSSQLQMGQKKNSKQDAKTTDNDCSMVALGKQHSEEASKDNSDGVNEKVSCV
In words: Binding to other brain receptors: serotonin 5-HT2. The note with it: negligible affinity.
From the text: as §1

Assay [6] concerns the target GABA receptors. Put plainly: Binding to other brain receptors: GABA. The settings on record: negligible affinity.
From the text: as §1

The target of assay [7] is adrenoreceptors alpha2. Put plainly: Binding to other brain receptors: adrenoreceptor alpha2. The note with it: negligible affinity.
From the text: as §1

Assay [8] addresses T3, adrenoreceptors beta1 (Homo sapiens, UniProt P08588).
T3 construct: from tissue
Put plainly: Binding to other brain receptors: adrenoreceptor beta1. The note with it: negligible affinity.
From the text: as §1

The target in assay [9] is T4, adrenoreceptors beta2 (Homo sapiens, UniProt P07550).
T4 construct: from tissue
T4 sequence (P07550 whole entry): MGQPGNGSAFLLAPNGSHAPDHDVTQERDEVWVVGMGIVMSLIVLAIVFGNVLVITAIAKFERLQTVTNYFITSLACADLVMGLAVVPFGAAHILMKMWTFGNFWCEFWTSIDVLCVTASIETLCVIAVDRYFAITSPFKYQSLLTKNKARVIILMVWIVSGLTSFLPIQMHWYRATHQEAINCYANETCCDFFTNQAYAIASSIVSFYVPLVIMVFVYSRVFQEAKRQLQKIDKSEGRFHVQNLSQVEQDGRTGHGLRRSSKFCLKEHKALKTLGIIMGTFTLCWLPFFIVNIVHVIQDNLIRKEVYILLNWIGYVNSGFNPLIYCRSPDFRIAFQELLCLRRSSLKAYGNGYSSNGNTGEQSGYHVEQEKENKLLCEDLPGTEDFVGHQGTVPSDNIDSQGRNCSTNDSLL
In words: Binding to other brain receptors: adrenoreceptor beta2. The note with it: negligible affinity.
From the text: as §1

The target of assay [10] is T5, opiate receptors mu (Homo sapiens, UniProt P35372).
T5 construct: from tissue
T5 sequence (P35372 whole entry): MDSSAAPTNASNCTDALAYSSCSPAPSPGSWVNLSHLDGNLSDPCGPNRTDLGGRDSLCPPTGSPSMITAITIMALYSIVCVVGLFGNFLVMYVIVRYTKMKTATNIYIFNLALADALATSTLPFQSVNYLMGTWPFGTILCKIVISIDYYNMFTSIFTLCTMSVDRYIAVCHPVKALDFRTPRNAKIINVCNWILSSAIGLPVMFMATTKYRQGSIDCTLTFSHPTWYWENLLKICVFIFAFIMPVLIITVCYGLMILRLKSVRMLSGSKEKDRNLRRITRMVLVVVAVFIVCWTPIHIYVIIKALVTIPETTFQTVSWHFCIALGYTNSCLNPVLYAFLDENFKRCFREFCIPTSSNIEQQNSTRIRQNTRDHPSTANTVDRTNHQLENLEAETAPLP
Put plainly: Binding to other brain receptors: opiate mu. The settings on record: negligible affinity.
From the text: as §1

For assay [11], the target named is T6, opiate receptors kappa (Homo sapiens, UniProt P41145).
T6 construct: from tissue
T6 sequence (P41145 whole entry): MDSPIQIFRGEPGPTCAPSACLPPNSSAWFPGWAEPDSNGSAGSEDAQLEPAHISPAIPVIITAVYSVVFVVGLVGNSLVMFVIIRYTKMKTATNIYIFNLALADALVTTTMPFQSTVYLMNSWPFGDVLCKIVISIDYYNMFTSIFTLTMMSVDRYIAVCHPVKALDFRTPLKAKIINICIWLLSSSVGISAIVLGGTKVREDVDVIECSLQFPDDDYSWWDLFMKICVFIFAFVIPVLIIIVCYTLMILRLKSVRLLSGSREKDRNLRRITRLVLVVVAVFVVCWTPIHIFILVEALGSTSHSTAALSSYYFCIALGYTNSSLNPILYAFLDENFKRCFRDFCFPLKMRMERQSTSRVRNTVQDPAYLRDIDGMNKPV
Put plainly: Binding to other brain receptors: opiate kappa. The settings on record: negligible affinity.
From the text: as §1

Assay [12] has as its system isolated guinea pig ileum, contractions induced by histamine. In words: Antagonist action on contractions induced by histamine, isolated guinea pig ileum. The note with it: histamine 1×10^-5 M; contact time one minute; 37° C.; read-out: Antagonist to different agents (IC50), Histam. On the procedure: (§2) The interaction of the compounds with different receptors was assessed on isolated guinea pig ileum according to the following method.
Guinea pig ileum segments measuring 2.5-3 cm were washed and immediately suspended in a bath containing 10 ml of Tyrode's solution at 37° C. aerated with a mixture of oxygen (95%) and carbon dioxide (5%). After a stabilization period of at least 30 minutes, the contractions were recorded, maintaining the preparation under constant tension of 1 g using a gauge connected to a polygraph. The agonist action was assessed by leaving the compound in contact with the isolated tissue for a period necessary for expressing the maximal contraction; the preparation was then washed with Tyrode's solution. The next dose was added to the bath only after the preparation had returned to its base line. As a reference product, arecoline was employed. The antagonist action was assessed on contractions induced by acetyl choline (1×10^-6 M), histamine (1×10^-5 M) and barium chloride (2×10^-4 M). […] The contact time before adding the agonist was one minute.
(§3) For each compound, the dose-response curves are obtained with 4 to 6 different concentrations and 3 to 5 independent tests. The agonist activity is expressed by pD2 (negative logarithm of the dose which produces 50% of maximum effect). The antagonist activity is expressed by IC50 (concentration inhibiting 50% of the maximal response).

Assay [13] concerns isolated guinea pig ileum, contractions induced by barium chloride. In words: Antagonist action on contractions induced by barium chloride, isolated guinea pig ileum. The note with it: barium chloride 2×10^-4 M; contact time one minute; 37° C.; read-out: Antagonist to different agents (IC50), BaCl2. On the procedure: as §2
(§4) Guinea pig ileum segments measuring 2.5-3 cm were washed and immediately suspended in a bath containing 10 ml of Tyrode's solution at 37° C. aerated with a mixture of oxygen (95%) and carbon dioxide (5%). After a stabilization period of at least 30 minutes, the contractions were recorded, maintaining the preparation under constant tension of 1 g using a gauge connected to a polygraph. The agonist action was assessed by leaving the compound in contact with the isolated tissue for a period necessary for expressing the maximal contraction; the preparation was then washed with Tyrode's solution. The next dose was added to the bath only after the preparation had returned to its base line. As a reference product, arecoline was employed. The antagonist action was assessed on contractions induced by acetyl choline (1×10^-6 M), histamine (1×10^-5 M) and barium chloride (2×10^-4 M). Atropine, diphenhydramine and papaverine were emplohyed as reference products. The contact time before adding the agonist was one minute.
as §3

In assay [14] the test system is isolated guinea pig ileum. Put plainly: Agonist action on isolated guinea pig ileum. The settings on record: negative logarithm of the dose which produces 50% of maximum effect. How it is done:
as §2, §4, §3

T3 sequence (P08588 whole entry): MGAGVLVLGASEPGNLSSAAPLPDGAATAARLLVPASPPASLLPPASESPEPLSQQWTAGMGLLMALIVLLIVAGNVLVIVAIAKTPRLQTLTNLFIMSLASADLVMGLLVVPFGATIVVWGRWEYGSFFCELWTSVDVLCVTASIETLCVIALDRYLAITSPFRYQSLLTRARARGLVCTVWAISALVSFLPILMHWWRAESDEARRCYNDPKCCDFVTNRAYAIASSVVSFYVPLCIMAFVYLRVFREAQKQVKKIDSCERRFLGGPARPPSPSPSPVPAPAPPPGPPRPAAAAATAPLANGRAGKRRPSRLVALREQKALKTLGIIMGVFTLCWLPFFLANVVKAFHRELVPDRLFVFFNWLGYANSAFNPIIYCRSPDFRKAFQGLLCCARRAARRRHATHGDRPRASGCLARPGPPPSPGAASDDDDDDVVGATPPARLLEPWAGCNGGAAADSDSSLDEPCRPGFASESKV

With `O=C1CCCCN1S(=O)(=O)c1ccc(N2CCCCC2)cc1` [Example 4, 1-[4-(1-Piperidinyl)benzenesulphonyl] -2-piperidinone], the IC50 in [1] is 0.128 µM; in assay [2], 5 to 10 µM; in assay [3], 5 to 10 µM; in assay [4], 5 to 10 µM; in [5] it was 5 to 10 µM; in [6] it was 5 to 10 µM. The IC50 was 5 to 10 µM in assay [7]; 5 to 10 µM in [8]; 5 to 10 µM in assay [9]; 5 to 10 µM in assay [10]; 5 to 10 µM in [11]; over 10 µM in assay [12]. The IC50 in [13] was over 10 µM. Moreover, the “affinity for the muscarinic receptor (in words)” value (shortened to “affinity”) in assay [1] was “noteworthy advantageous affinity for the muscarinic receptor, and mainly for the M1 type receptor”. For the same molecule, in assay [14], the “Agonist action pD2” value is reported as under 5.
As to `O=C1CCCCN1S(=O)(=O)c1ccc(N2CCCCCC2)cc1` [Example 5, 1-[4-(1-Hexahydroazepinyl)benzenesulphonyl]-2-piperidinone], the IC50 in assay [1] is 0.049 µM; in assay [2] it was 5 to 10 µM; in [3], 5 to 10 µM; in assay [4], 5 to 10 µM; in assay [5], 5 to 10 µM; in [6], 5 to 10 µM. Moreover, the IC50 in assay [7] was 5 to 10 µM; in assay [8], 5 to 10 µM; in assay [9] it was 5 to 10 µM; in assay [10] it was 5 to 10 µM; in assay [11] it was 5 to 10 µM; in assay [12] it was over 10 µM. In addition, the IC50 in assay [13] was over 10 µM. Also, in assay [1], the “affinity” value is “noteworthy advantageous affinity for the muscarinic receptor, and mainly for the M1 type receptor”. Moreover, the “Agonist action pD2” value in assay [14] is given as under 5.
On to `CCN(CC)c1ccc(S(=O)(=O)N2CCCCC2=O)cc1` [Example 2, 1-[4-(Diethylamino)benzenesulphonyl]-2-piperidinone], for which the IC50 in assay [1] was 0.314 µM; in assay [2], 5 to 10 µM; in assay [3] it was 5 to 10 µM; in assay [4], 5 to 10 µM; in [5], 5 to 10 µM; in assay [6] it was 5 to 10 µM. Moreover, the half-maximal inhibitory concentration (IC50) in [7] is 5 to 10 µM; in assay [8], 5 to 10 µM; in assay [9], 5 to 10 µM; in assay [10] it was 5 to 10 µM; in assay [11] it was 5 to 10 µM; in assay [12], over 10 µM. Besides, the concentration for half-maximal inhibition (IC50) in assay [13] was over 10 µM. The “affinity” value in assay [1] was “noteworthy advantageous affinity for the muscarinic receptor, and mainly for the M1 type receptor”. In addition, the “Agonist action pD2” value in [14] was under 5.
